Activity calls are given as the source filed them. No cut-off for these calls is given here. Square brackets hold non-standard residues; d marks the D form. Peptide text beside a SMILES is read from it. * marks the point of attachment. dCit = NC(=O)NCCC[C@@H](N)C(=O)O; 3Pal = N[C@@H](Cc1cccnc1)C(=O)O; β3hF = N[C@H](CC(=O)O)Cc1ccccc1; PhAc = O=C(Cc1ccccc1)*; azaGly = NNC(=O)O
Assays:
[1] = molecular target: Prostaglandin F2-alpha receptor (Mus musculus) (UniProt P43117); test: Antagonist activity at FP receptor in postpartum mouse myometrial strip assessed as inhibition of PGF-2alpha-induced uterine contractions; format: functional
[2] = molecular target: Prostaglandin F2-alpha receptor (Homo sapiens) (UniProt P43088); test: Antagonist activity at human FP receptor expressed in HEK293 cells assessed as inhibition of PGF-2alpha-mediated cell ruffling at 1 uM after 30 mins by immunofluorescence assay (reference value: 65.7 +/- 1.6 %); format: functional, cell-based
[3] = molecular target: Prostaglandin F2-alpha receptor (Homo sapiens) (UniProt P43088); test: Antagonist activity at human FP receptor expressed in HEK293 cells assessed as inhibition of cell ruffling at 1 uM after 30 mins by immunofluorescence assay; format: functional, cell-based
[4] = molecular target: Prostaglandin F2-alpha receptor (Homo sapiens) (UniProt P43088); test: Antagonist activity at human FP receptor expressed in HEK293 cells assessed as ERK1/2 activation at 1 uM after 30 mins by Western blot analysis; format: functional, cell-based
[5] = molecular target: Prostaglandin F2-alpha receptor (Homo sapiens) (UniProt P43088); test: Antagonist activity at human FP receptor expressed in HEK293 cells assessed as potentiation of PGF-2alpha-induced Galphaq-mediated PKC/ERK1/2 activation at 1 uM after 30 mins by Western blot analysis; format: functional, cell-based
[6] = molecular target: Prostaglandin F2-alpha receptor (Bos taurus) (UniProt P37289); details: 100 uM
Description: Antagonist activity at FP receptor in bovine myometrial strip assessed as inhibition of PGF-2alpha-induced contractions at 100 uM

[7] = molecular target: Prostaglandin F2-alpha receptor (Bos taurus, UniProt P37289); test: Antagonist activity at FP receptor in bovine myometrial strip assessed as inhibition of PGF-2alpha-induced contractions; format: functional
[8] = molecular target: Prostaglandin F2-alpha receptor (Mus musculus, UniProt P43117); test: Antagonist activity at FP receptor in mouse myometrial strip assessed as inhibition of PGF-2alpha-induced contractions; format: functional
[9] = molecular target: Prostaglandin F2-alpha receptor (Ovis aries) (UniProt Q28905); details: 100 uM
Description: Antagonist activity at FP receptor in sheep myometrial strip assessed as inhibition of PGF-2alpha-induced contractions at 100 uM

Mus musculus [10] = organism: Mus musculus; test: Inhibition of PGF-2alpha-induced uterine contractions in pregnant mouse assessed as time delay in preterm labor at 0.8 mg/day; format: functional
[11] = molecular target: Prostaglandin F2-alpha receptor (Mus musculus) (UniProt P43117); details: 100 uM
Description: Antagonist activity at FP receptor in mouse myometrial strip assessed as inhibition of PGF-2alpha-induced contractions at 100 uM

[12] = molecular target: Prostaglandin F2-alpha receptor (Ovis aries, UniProt Q28905); test: Antagonist activity at FP receptor in sheep myometrial strip assessed as inhibition of PGF-2alpha-induced contractions; format: functional
Mus musculus [13] = test: Inhibition of PGF-2alpha-induced uterine contractions in pregnant CD-1 mouse assessed as time delay in preterm labor at 0.1 mg, ip administered as bolus dose immediately followed by 10 mg, sc; format: functional
Mus musculus [14] = test: Inhibition of LPS-induced uterine contractions in pregnant CD-1 mouse assessed as time delay in preterm labor at 0.1 mg, ip administered as bolus dose immediately followed by 10 mg, sc; format: functional
[15] = Antagonist activity at FP receptor in pig retina assessed as inhibition of PGF-2alpha induced microvascular contraction; format: functional, tissue-based, Sus scrofa
[16] = Antagonist activity at FP receptor in pig retina assessed as inhibition of PGF-2alpha induced microvascular contraction at 100 uM; format: functional; details: Sus scrofa

Prostaglandin F2-alpha receptor (Mus musculus), sequence (P43117 whole entry): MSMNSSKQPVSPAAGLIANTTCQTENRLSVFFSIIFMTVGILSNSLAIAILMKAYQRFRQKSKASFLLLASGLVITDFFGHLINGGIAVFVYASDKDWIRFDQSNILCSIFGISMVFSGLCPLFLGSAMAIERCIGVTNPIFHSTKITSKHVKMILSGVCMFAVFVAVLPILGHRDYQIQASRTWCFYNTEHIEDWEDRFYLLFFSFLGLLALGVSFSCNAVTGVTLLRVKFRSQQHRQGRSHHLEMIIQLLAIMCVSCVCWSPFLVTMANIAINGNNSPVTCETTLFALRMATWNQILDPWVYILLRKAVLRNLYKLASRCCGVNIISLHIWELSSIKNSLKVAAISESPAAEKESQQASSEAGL
Prostaglandin F2-alpha receptor (Homo sapiens), sequence (P43088 whole entry): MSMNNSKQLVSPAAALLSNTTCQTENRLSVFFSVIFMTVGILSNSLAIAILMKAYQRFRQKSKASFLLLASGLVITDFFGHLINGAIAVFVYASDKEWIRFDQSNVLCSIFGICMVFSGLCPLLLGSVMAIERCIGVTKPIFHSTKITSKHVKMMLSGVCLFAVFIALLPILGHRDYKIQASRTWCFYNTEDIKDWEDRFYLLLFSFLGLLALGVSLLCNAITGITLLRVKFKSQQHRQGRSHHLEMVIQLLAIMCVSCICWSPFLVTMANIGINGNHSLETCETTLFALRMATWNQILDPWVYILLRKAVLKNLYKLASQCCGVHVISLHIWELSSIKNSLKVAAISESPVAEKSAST
Prostaglandin F2-alpha receptor (Mus musculus, UniProt P43117), sequence (P43117 whole entry): as the sequence (P43117 whole entry) above
Prostaglandin F2-alpha receptor (Ovis aries, UniProt Q28905), sequence (Q28905 whole entry): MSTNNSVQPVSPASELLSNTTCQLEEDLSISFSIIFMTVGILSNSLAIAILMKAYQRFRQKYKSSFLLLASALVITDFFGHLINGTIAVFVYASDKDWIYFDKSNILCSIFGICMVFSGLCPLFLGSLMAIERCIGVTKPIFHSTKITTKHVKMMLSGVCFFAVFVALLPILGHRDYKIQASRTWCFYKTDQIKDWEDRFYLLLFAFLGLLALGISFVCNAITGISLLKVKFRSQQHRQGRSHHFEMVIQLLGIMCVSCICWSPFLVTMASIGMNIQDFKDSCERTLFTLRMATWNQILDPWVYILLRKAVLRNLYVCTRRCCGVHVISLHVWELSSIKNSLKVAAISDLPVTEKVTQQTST
Prostaglandin F2-alpha receptor (Ovis aries), sequence (Q28905 whole entry): as above
Prostaglandin F2-alpha receptor (Bos taurus, UniProt P37289), sequence (P37289 whole entry): as the sequence (Q28905 whole entry) above, with N5S, V7I, A13E, Q192E, N340D counted along it
Prostaglandin F2-alpha receptor (Bos taurus), sequence (P37289 whole entry): as the sequence (Q28905 whole entry) above, with N5S, V7I, A13E, Q192E, N340D counted along it

Row | SMILES | inhibition [1] | inhibition [2] | Activity [5] | further results
1 | C=CCN(NC(=O)Cc1ccccc1)C(=O)N1CCC[C@H]1C(=O)N[C@@H](Cc1cccnc1)C(=O)N[C@H](CC(=O)O)Cc1ccccc1 | inactive | – | – | –
2 | O=C(O)C[C@H](Cc1ccccc1)NC(=O)[C@H](Cc1cccnc1)NC(=O)[C@@H]1CCCN1C(=O)N(Cc1ccccc1)NC(=O)Cc1ccccc1 | Active | 37.4% | Active | inhibition [3]: inactive; Activity [4]: inactive
3 | CC[C@@H](C)[C@@H](N)C(=O)N[C@H](CC(C)C)C(=O)NCC(=O)N[C@H](Cc1cnc[nH]1)C(=O)N[C@H](CCCNC(N)=O)C(=O)N[C@H](CC(=O)O)C(=O)N[C@H](Cc1ccc(O)cc1)C(=O)N[C@H](CCCCN)C(=O)O (H-[dI][dL]G[dH][dCit][dD][dY][dK]-OH) | – | – | – | inhibition [6]: > 85%; IC50 [7]: 13 nM; IC50 [8]: 13 nM; inhibition [9]: > 85%; Time (Mus musculus [10]): 48 h; inhibition [11]: > 85%; IC50 [12]: 13 nM
4 | C#CCN(NC(=O)Cc1ccccc1)C(=O)N1CCC[C@H]1C(=O)N[C@@H](Cc1cccnc1)C(=O)N[C@H](CC(=O)O)Cc1ccccc1 | Active | 56.7% | Active | inhibition [3]: inactive; Activity [4]: inactive
5 | CC[C@@H](C)[C@@H](N)C(=O)N[C@H](CC(C)C)C(=O)NCC(=O)N[C@H](Cc1cnc[nH]1)C(=O)N[C@H](CCCNC(=N)N)C(=O)N[C@H](CC(=O)O)C(=O)N[C@H](Cc1ccc(O)cc1)C(=O)N[C@H](CCCCN)C(=O)O (H-[dI][dL]G[dH][dR][dD][dY][dK]-OH) | – | – | – | IC50 [15]: 340 nM; inhibition at 100 µM [16]: > 80%

Second part, led by results:

Row | inhibition [1] | inhibition [2] | Activity [5] | SMILES | further results
6 | inactive | – | – | O=C(O)C[C@H](Cc1ccccc1)NC(=O)[C@H](Cc1cccnc1)NC(=O)[C@@H]1CCC[C@@H]2C[C@H](NC(=O)Cc3ccccc3)C(=O)N21 | –
7 | inactive | – | – | NC(=O)NCCC[C@@H](NC(=O)[C@H]1CC[C@H]2CC[C@@H](NC(=O)Cc3ccccc3)C(=O)N21)C(=O)N[C@@H](CC(=O)O)Cc1ccccc1 | –
8 | inactive | – | – | O=C(O)C[C@H](Cc1ccccc1)NC(=O)[C@H](Cc1cccnc1)NC(=O)[C@@H]1CCC[C@@H]2CC[C@H](NC(=O)Cc3ccccc3)C(=O)N21 | –
9 | Active | 40.3% | Active | O=C(O)C[C@H](Cc1ccccc1)NC(=O)[C@H](Cc1cccnc1)NC(=O)[C@@H]1CC[C@@H]2CC[C@H](NC(=O)Cc3ccccc3)C(=O)N21 | Time (Mus musculus [13]): 42 h; Time (Mus musculus [14]): 28 h
10 | inactive | – | – | CN(NC(=O)Cc1ccccc1)C(=O)N1CCC[C@H]1C(=O)N[C@@H](Cc1cccnc1)C(=O)N[C@H](CC(=O)O)Cc1ccccc1 | –
11 | Active | 37.5% | Active | O=C(O)C[C@H](Cc1ccccc1)NC(=O)[C@H](Cc1cccnc1)NC(=O)[C@@H]1CCCN1C(=O)NNC(=O)Cc1ccccc1 (PhAc-[azaGly]P[3Pal][β3hF]-OH) | inhibition [3]: inactive; Activity [4]: inactive
12 | inactive | – | – | NC(=O)NCCC[C@H](NC(=O)[C@H]1CC[C@H]2CC[C@@H](NC(=O)Cc3ccccc3)C(=O)N21)C(=O)N[C@H](CC(=O)O)Cc1ccccc1 | –

From ChEMBL document CHEMBL1909592, “Targeting the prostaglandin F2α receptor for preventing preterm labor with azapeptide tocolytics” (J Med Chem, 2011)
